This is an account of results in US12209087B2, “AKT1 modulators” (Alterome Therapeutics, Inc., priority 2022, dated 2025).

By IC50 is commonly meant the midpoint of a concentration-inhibition curve.

T1 sequence (P31749 whole entry E17K): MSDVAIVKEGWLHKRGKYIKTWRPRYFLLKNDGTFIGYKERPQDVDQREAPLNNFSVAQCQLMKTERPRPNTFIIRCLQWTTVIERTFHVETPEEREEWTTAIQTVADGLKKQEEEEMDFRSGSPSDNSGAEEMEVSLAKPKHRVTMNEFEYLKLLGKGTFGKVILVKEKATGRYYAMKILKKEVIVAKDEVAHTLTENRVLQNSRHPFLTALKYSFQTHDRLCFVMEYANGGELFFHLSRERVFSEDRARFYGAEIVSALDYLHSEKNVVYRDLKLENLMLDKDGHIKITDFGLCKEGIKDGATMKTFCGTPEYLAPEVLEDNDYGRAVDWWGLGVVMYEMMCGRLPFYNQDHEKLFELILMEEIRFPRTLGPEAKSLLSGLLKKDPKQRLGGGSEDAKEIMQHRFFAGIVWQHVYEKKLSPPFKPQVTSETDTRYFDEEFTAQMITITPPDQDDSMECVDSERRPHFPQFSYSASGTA

One assay has as its target T1, full length AKT E17K (Homo sapiens, UniProt P31749, E17K).
T1 construct: host or cells: HEK-293 (ATCC CRL-1573)
Description: NanoBRET Target Engagement (TE) Assay. It counts as cell-based. To be noted: competitive displacement of tracer in cells, read-out: AKT1 E17K IC50. Summed up: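 Compound and tracer incubated 2 h before luminescence at donor 450 nm and acceptor 600 nm, with extracellular signal inhibited. EC50 by sigmoidal variable-slope regression.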
On the technique in general: BRET reads energy transfer from a luciferase to a nearby fluorophore.
In the case of `N#Cc1nccc(N2CC3(CN(Cc4ccc(-n5c(-c6cccnc6N)nc6ccc(-c7ccc(F)cc7)nc65)cc4)C3)C2)n1` [Example 447, 4-(6-(4-(2-(2-Aminopyridin-3-yl)-5-(4-fluorophenyl)-3H-imidazo[4,5-b]pyridin-3-yl)benzyl)-2,6-diazaspiro[3.3]heptan-2-yl)pyrimidine-2-carbonitrile], the IC50 was under 15 nM.

Consider `Cc1cncc(-c2ccc3nc(-c4cccnc4N)n(-c4ccc(CN5CCC(Nc6ccnc(C#N)n6)CC5)cc4)c3n2)c1` [Example 478, 4-((1-(4-(2-(2-Aminopyridin-3-yl)-5-(5-methylpyridin-3-yl)-3H-imidazo[4,5-b]pyridin-3-yl)benzyl)piperidin-4-yl)amino)pyrimidine-2-carbonitrile], for which the IC50 is under 15 nM.

As to `N#Cc1nccc(NC2CC3(C2)CN(Cc2ccc(-n4c(-c5cccnc5N)nc5ccc(-c6ccc(F)cc6)nc54)cc2)C3)n1` [Example 445, 4-((2-(4-(2-(2-Aminopyridin-3-yl)-5-(4-fluorophenyl)-3H-imidazo[4,5-b]pyridin-3-yl)benzyl)-2-azaspiro[3.3]heptan-6-yl)amino)pyrimidine-2-carbonitrile], the IC50 is under 15 nM.

As for `N#Cc1nccc(NC2CCN(Cc3ccc(-n4c(-c5cccnc5N)nc5ccc(N)nc54)cc3)CC2)n1` [Example 497, 4-((1-(4-(5-Amino-2-(2-aminopyridin-3-yl)-3H-imidazo[4,5-b]pyridin-3-yl)benzyl)piperidin-4-yl)amino)pyrimidine-2-carbonitrile], the IC50 fell in the range of 15 to 60 nM.

For `[2H]C([2H])(c1ccc(-n2c(-c3cccnc3N)nc3ccc(-c4ccc(F)cc4)nc32)cc1)N1CCC(N(C)c2ccnc(C#N)n2)CC1` [Example 488, 4-((1-((4-(2-(2-Aminopyridin-3-yl)-5-(4-fluorophenyl)-3H-imidazo[4,5-b]pyridin-3-yl)phenyl)methyl-d2)piperidin-4-yl)(methyl)amino)pyrimidine-2-carbonitrile], the half-maximal inhibitory concentration (IC50) is under 15 nM.

Take `CC(=O)N(C)C1CCN(c2cccc(-c3ccc4nc(-c5cccnc5N)n(-c5ccc(CN6CCC(Nc7ccnc(C#N)n7)CC6)cc5)c4n3)c2)CC1` [Example 522, N-(1-(3-(2-(2-Aminopyridin-3-yl)-3-(4-((4-((2-cyanopyrimidin-4-yl)amino)piperidin-1-yl)methyl)phenyl)-3H-imidazo[4,5-b]pyridin-5-yl)phenyl)piperidin-4-yl)-N-methylacetamide]: the IC50 was 15 to 60 nM.

In the case of `N#Cc1nccc(NC2CCN(Cc3ccc(-n4c(-c5cccnc5N)nc5ccc(C6CCCC6)nc54)cc3)CC2)n1` [Example 388, 4-((1-(4-(2-(2-Aminopyridin-3-yl)-5-cyclopentyl-3H-imidazo[4,5-b]pyridin-3-yl)benzyl)piperidin-4-yl)amino)pyrimidine-2-carbonitrile], the concentration for half-maximal inhibition (IC50) is under 15 nM.

As for `N#Cc1cc(N2CCN(Cc3ccc(-n4c(-c5cccnc5N)nc5ccc(-c6ccccc6Cl)nc54)cc3)CC2)ncn1` [Example 326, 6-(4-(4-(2-(2-Aminopyridin-3-yl)-5-(2-chlorophenyl)-3H-imidazo[4,5-b]pyridin-3-yl)benzyl)piperazin-1-yl)pyrimidine-4-carbonitrile], the IC50 fell in the range of 15 to 60 nM.

With `CCOc1ccc(-c2ccc3nc(-c4cccnc4N)n(-c4ccc(CN5CCC(Nc6ccnc(C#N)n6)CC5)cc4)c3n2)nc1` [Example 560, 4-((1-(4-(2-(2-Aminopyridin-3-yl)-5-(5-ethoxypyridin-2-yl)-3H-imidazo[4,5-b]pyridin-3-yl)benzyl)piperidin-4-yl)amino)pyrimidine-2-carbonitrile], the IC50 is under 15 nM.

On to `N#Cc1nccc(NC2CCN(Cc3ccc(-n4c(-c5cccnc5N)nc5ccc(-c6cccc(F)c6)nc54)cc3)CC2)n1` [Example 357, 4-((1-(4-(2-(2-Aminopyridin-3-yl)-5-(3-fluorophenyl)-3H-imidazo[4,5-b]pyridin-3-yl)benzyl)piperidin-4-yl)amino)pyrimidine-2-carbonitrile], for which the half-inhibitory concentration (IC50) is 15 to 60 nM.

On to `N#Cc1nccc(NC2CCN(Cc3ccc(-n4c(-c5cccnc5N)nc5ccc(-c6cccnc6)nc54)cc3)CC2)n1` [Example 431, 4-((1-(4-(2-(2-Aminopyridin-3-yl)-5-(pyridin-3-yl)-3H-imidazo[4,5-b]pyridin-3-yl)benzyl)piperidin-4-yl)amino)pyrimidine-2-carbonitrile], for which the IC50 is under 15 nM.

Take `N#Cc1nccc(NC2CCN(Cc3ccc(-n4c(-c5cccnc5N)nc5ccc(-c6cccc(N7CCCC7=O)c6)nc54)cc3)CC2)n1` [Example 468, 4-((1-(4-(2-(2-Aminopyridin-3-yl)-5-(3-(2-oxopyrrolidin-1-yl)phenyl)-3H-imidazo[4,5-b]pyridin-3-yl)benzyl)piperidin-4-yl)amino)pyrimidine-2-carbonitrile]: the 50% inhibitory concentration (IC50) was under 15 nM.

For `N#Cc1ncnc(N2CCC3(CCN(Cc4ccc(-n5c(-c6cccnc6N)nc6ccc(-c7ccccc7)nc65)cc4)CC3)CC2)n1` [Example 365, 4-(9-(4-(2-(2-Aminopyridin-3-yl)-5-phenyl-3H-imidazo[4,5-b]pyridin-3-yl)benzyl)-3,9-diazaspiro[5.5]undecan-3-yl)-1,3,5-triazine-2-carbonitrile], the 50% inhibitory concentration (IC50) lay in the range of 15 to 60 nM.

`N#Cc1nccc(NC2CCN(Cc3ccc(-n4c(-c5cccnc5N)nc5ccc(F)nc54)cc3)CC2)n1` [Example 401, 4-((1-(4-(2-(2-Aminopyridin-3-yl)-5-fluoro-3H-imidazo[4,5-b]pyridin-3-yl)benzyl)piperidin-4-yl)amino)pyrimidine-2-carbonitrile]: the concentration for half-maximal inhibition (IC50) is 15 to 60 nM.

The same assay, now with this note: competitive tracer displacement in living cells, read-out: AKT1 E17K IC50.
Take `N#Cc1ccnc(C(=O)NC2CCN(Cc3ccc(-n4c(-c5cccnc5N)nc5cccnc54)cc3)CC2)c1` [Example 31, N-(1-(4-(2-(2-Aminopyridin-3-yl)-3H-imidazo[4,5-b]pyridin-3-yl)benzyl)piperidin-4-yl)-4-cyanopicolinamide]: the IC50 fell in the range of 600 to 10000 nM.

Regarding `N#Cc1cc(C(=O)NCc2ccc(-n3c(-c4cccnc4N)nc4cccnc43)cc2)ncn1` [Example 113, N-(4-(2-(2-Aminopyridin-3-yl)-3H-imidazo[4,5-b]pyridin-3-yl)benzyl)-6-cyanopyrimidine-4-carboxamide], the IC50 was 600 to 10000 nM.

With `C[C@@H]1CN(Cc2ccc(-n3c(-c4cccnc4N)nc4ccc(-c5ccccc5)nc43)cc2)CCN1c1cc(C#N)ncn1` [Example 227, (R)-6-(4-(4-(2-(2-Aminopyridin-3-yl)-5-phenyl-3H-imidazo[4,5-b]pyridin-3-yl)benzyl)-2-methylpiperazin-1-yl)pyrimidine-4-carbonitrile], the IC50 lay within 60 to 600 nM.

For `N#Cc1ncnc(N2CC[C@@]3(CCN(Cc4ccc(-n5c(-c6cccnc6N)nc6ccc(-c7ccccc7)nc65)cc4)C3)C2)n1` [Example 255, (R)-4-(7-(4-(2-(2-aminopyridin-3-yl)-5-phenyl-3H-imidazo[4,5-b]pyridin-3-yl)benzyl)-2,7-diazaspiro[4.4]nonan-2-yl)-1,3,5-triazine-2-carbonitrile], the IC50 is under 15 nM.

Consider `C[C@@H]1CN(Cc2ccc(-n3c(-c4cccnc4N)nc4ccc(-c5ccccc5)nc43)cc2)CCN1c1ncnc(C#N)n1` [Example 273, (R)-4-(4-(4-(2-(2-Aminopyridin-3-yl)-5-phenyl-3H-imidazo[4,5-b]pyridin-3-yl)benzyl)-2-methylpiperazin-1-yl)-1,3,5-triazine-2-carbonitrile], for which the IC50 was under 15 nM.

For the molecule `N#Cc1nccc(NC2CCN(Cc3ccc(-n4c(-c5cccnc5N)nc5ccc(-c6cccc(=O)[nH]6)nc54)cc3)CC2)n1` [Example 267, 4-((1-(4-(2-(2-Aminopyridin-3-yl)-5-(6-oxo-1,6-dihydropyridin-2-yl)-3H-imidazo[4,5-b]pyridin-3-yl)benzyl)piperidin-4-yl)amino)pyrimidine-2-carbonitrile], the 50% inhibitory concentration (IC50) is under 15 nM.

`N#Cc1ccnc(N2C3CCC2CN(Cc2ccc(-n4c(-c5cccnc5N)nc5ccc(-c6ccccc6)nc54)cc2)C3)n1` [Example 204, 2-(3-(4-(2-(2-Aminopyridin-3-yl)-5-phenyl-3H-imidazo[4,5-b]pyridin-3-yl)benzyl)-3,8-diazabicyclo[3.2.1]octan-8-yl)pyrimidine-4-carbonitrile]: the IC50 lay in the range of 600 to 10000 nM.

As for `N#Cc1cc(N2C3CCC2CN(Cc2ccc(-n4c(-c5cccnc5N)nc5ccc(-c6ccccc6)nc54)cc2)C3)ncn1` [Example 205, 6-(3-(4-(2-(2-Aminopyridin-3-yl)-5-phenyl-3H-imidazo[4,5-b]pyridin-3-yl)benzyl)-3,8-diazabicyclo[3.2.1]octan-8-yl)pyrimidine-4-carbonitrile], the IC50 lay in the range of 60 to 600 nM.

In the case of `N#Cc1nccc(N2CCN(Cc3ccc(-n4c(-c5cccnc5N)nc5ccc(-c6ccc(F)cc6)nc54)cc3)CC2)n1` [Example 242, 4-(4-(4-(2-(2-Aminopyridin-3-yl)-5-(4-fluorophenyl)-3H-imidazo[4,5-b]pyridin-3-yl)benzyl)piperazin-1-yl)pyrimidine-2-carbonitrile], the IC50 was in the range of 15 to 60 nM.

Turning to `N#Cc1ccnc(N2CCN(Cc3ccc(-n4c(-c5cccnc5N)nc5ccc(-c6ccccc6)nc54)cc3)CC2)n1` [Example 68, 2-(4-(4-(2-(2-Aminopyridin-3-yl)-5-phenyl-3H-imidazo[4,5-b]pyridin-3-yl)benzyl)piperazin-1-yl)pyrimidine-4-carbonitrile], the half-maximal inhibitory concentration (IC50) was under 15 nM.

Regarding `N#Cc1nccc(NC2C3CCC2CN(Cc2ccc(-n4c(-c5cccnc5N)nc5ccc(-c6ccccc6)nc54)cc2)C3)n1` (centres unmarked) [Example 201, 4-((3-(4-(2-(2-Aminopyridin-3-yl)-5-phenyl-3H-imidazo[4,5-b]pyridin-3-yl)benzyl)-3-azabicyclo[3.2.1]octan-8-yl)amino)pyrimidine-2-carbonitrile], the IC50 is 60 to 600 nM.

Turning to `N#Cc1cnccc1C(=O)N1CCN(Cc2ccc(-n3c(-c4cccnc4N)nc4ccc(-c5ccccc5)nc43)cc2)CC1` [Example 144, 4-(4-(4-(2-(2-Aminopyridin-3-yl)-5-phenyl-3H-imidazo[4,5-b]pyridin-3-yl)benzyl)piperazine-1-carbonyl)nicotinonitrile], the half-maximal inhibitory concentration (IC50) was 600 to 10000 nM.
